According to paper PMC4551560, “Metabolic profiling of ligands for the chemokine receptor CXCR3 by liquid chromatography-mass spectrometry coupled to bioaffinity assessment” (Analytical and Bioanalytical Chemistry, 2015):
pKd, pKi: −log10 of the molar value.

Assays:
[1] = biological target: T1, CXCR3 (Homo sapiens, UniProt P49682); assay: [3H]-VUF11211 radioligand displacement after LC nanofractionation, HEK293/CXCR3 membranes; […]-CXCL10 displacement also shown; assay type: binding
T1 construct: human CXCR3 in HEK293/CXCR3 membranes
T1 sequence (P49682 1-368): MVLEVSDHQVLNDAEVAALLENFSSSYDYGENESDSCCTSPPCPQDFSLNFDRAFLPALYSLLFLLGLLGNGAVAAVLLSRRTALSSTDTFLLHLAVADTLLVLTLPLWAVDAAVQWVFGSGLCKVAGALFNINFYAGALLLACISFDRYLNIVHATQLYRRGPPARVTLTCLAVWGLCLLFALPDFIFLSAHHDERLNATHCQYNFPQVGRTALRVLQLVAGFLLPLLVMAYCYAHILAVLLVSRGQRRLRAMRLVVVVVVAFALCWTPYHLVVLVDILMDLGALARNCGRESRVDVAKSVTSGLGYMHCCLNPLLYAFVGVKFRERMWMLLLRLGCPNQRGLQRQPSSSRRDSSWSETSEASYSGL

[2] = biological target: T1, CXCR3; assay: [3H]-VUF11211 radioligand displacement after LC nanofractionation, HEK293/CXCR3 membranes; assay type: binding

pKi [2] | SMILES | pKd [1]
 | CCNC(=O)c1cnc(N2CCN(C3CCN(Cc4ccc(Cl)cc4)CC3)[C@@H](CC)C2)c(Cl)c1 [VUF11211] | 9.30
7.90 | CCOc1ccc(-n2c([C@@H](C)N(Cc3cccnc3)C(=O)Cc3ccc(F)c(C(F)(F)F)c3)nc3ncccc3c2=O)cc1 [NBI-74330] | 
